Test results reported in ChEMBL document CHEMBL3576852, “Switch in Site of Inhibition: A Strategy for Structure-Based Discovery of Human Topoisomerase IIα Catalytic Inhibitors” (ACS Med Chem Lett, 2015).
Active and inactive are the calls of the source. No cut-off for these calls is given here.

Tests used:
[1] = molecular target: T1, DNA topoisomerase 2-alpha (Homo sapiens, UniProt P11388); assay: Inhibition of human topoisomerase 2alpha assessed as reduction in enzyme-mediated relaxation of negatively supercoiled pRYG DNA at 100 uM incubated for 30 mins by ethidium bromide staining based gel electrophoresis method
[2] = molecular target: T1, DNA topoisomerase 2-alpha; assay: Inhibition of human topoisomerase 2alpha assessed as reduction in enzyme-mediated kinetoplast DNA decatenation at 100 uM incubated for 30 mins by agarose gel electrophoresis method
HEK293 = assay: Cytotoxicity against HEK293 cells assessed as reduction in cell viability after 48 hrs by MTT assay; assay type: functional; settings: Homo sapiens; for CC50: HEK293, 48 h, read-out: LC50 (the source's name)
[3] = Cytotoxicity against African green monkey Vero cells assessed as cell viability at 75 uM after 48 hrs by MTT assay; assay type: cell-based; settings: chlorocebus sabaeus, read-out: Activity
[4] = molecular target: T2, DNA topoisomerase 1 (Homo sapiens) (UniProt P11387); assay: Inhibition of human topoisomerase-1 assessed as reduction in enzyme-mediated relaxation of negatively supercoiled pRYG DNA at 100 uM incubated for 30 mins by ethidium bromide staining based gel electrophoresis method
T2 sequence (whole entry): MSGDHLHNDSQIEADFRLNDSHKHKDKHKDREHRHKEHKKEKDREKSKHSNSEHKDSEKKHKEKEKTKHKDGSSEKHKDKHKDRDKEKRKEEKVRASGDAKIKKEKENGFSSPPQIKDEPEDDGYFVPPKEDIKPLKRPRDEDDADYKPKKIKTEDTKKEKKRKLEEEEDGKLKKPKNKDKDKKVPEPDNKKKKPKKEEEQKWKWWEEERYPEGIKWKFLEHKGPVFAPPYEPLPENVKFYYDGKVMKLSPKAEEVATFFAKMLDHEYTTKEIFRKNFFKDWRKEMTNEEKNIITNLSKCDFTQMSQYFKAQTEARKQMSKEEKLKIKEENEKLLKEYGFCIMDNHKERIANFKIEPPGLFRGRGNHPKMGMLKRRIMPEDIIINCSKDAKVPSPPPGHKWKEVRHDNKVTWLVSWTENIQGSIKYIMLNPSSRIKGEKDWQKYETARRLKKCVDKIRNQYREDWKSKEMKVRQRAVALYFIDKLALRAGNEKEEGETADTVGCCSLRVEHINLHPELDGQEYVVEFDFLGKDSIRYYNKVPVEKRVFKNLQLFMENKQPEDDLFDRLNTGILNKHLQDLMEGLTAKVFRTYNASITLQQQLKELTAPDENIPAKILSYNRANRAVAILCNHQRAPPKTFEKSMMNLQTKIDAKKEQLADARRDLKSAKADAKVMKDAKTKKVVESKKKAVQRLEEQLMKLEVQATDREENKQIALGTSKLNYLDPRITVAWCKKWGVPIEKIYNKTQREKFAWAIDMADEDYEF

[5] = molecular target: T1, DNA topoisomerase 2-alpha; assay: Poisoning activity against human topoisomerase 2alpha assessed as induction of linear DNA formation at 100 uM incubated for 20 mins using small circular supercoiled pHOT DNA substrate by ethidium bromide staining based gel electrophoresis method
[6] = molecular target: T1, DNA topoisomerase 2-alpha; assay: Inhibition of human topoisomerase 2alpha assessed as reduction in enzyme-mediated kinetoplast DNA decatenation incubated for 30 mins by agarose gel electrophoresis method
[7] = Binding affinity to TOP-FLASH TCF/LEF transcription factor DNA (unknown origin) at 5 to 25 uM incubated for 2 hrs by UV-visible spectrophotometry
[8] = molecular target: T1, DNA topoisomerase 2-alpha; assay: Inhibition of etoposide-enhanced human topoisomerase 2alpha-mediated DNA cleavage at 100 to 400 uM pre-incubated for 2 mins before 100 uM etoposide addition by ethidium bromide staining based gel electrophoresis method
Nucleic Acid = assay: Induction of DNA intercalation of Escherichia coli pUC19 DNA at 100 uM by ethidium bromide staining based agarose gel electrophoresis method; assay type: nucleic-acid assay
[9] = molecular target: T1, DNA topoisomerase 2-alpha; assay: Inhibition of etoposide-enhanced human topoisomerase 2alpha-mediated DNA cleavage at 100 to 400 uM pre-incubated for 2 mins with 100 uM etoposide followed by compound addition by ethidium bromide staining based gel electrophoresis method
[10] = molecular target: T1, DNA topoisomerase 2-alpha; assay: Inhibition of human topoisomerase 2alpha ATPase activity assessed as inorganic phosphate release at 100 uM using pUC19 DNA substrate by malachite green reagent based ATPase inhibition assay
[11] = molecular target: T1, DNA topoisomerase 2-alpha; assay: Inhibition of etoposide-enhanced human topoisomerase 2alpha-mediated DNA cleavage at 100 to 400 uM incubated for 2 mins with simultaneous addition of 100 uM etoposide by ethidium bromide staining based gel electrophoresis method
[12] = molecular target: T1, DNA topoisomerase 2-alpha; assay: Inhibition of topoisomerase 2alpha in HEK293 cells at 5 to 15 uM incubated for 48 hrs using TOP-FLASH plasmid substrate by ethidium bromide staining based agarose gel electrophoresis method; assay type: cell-based
[13] = molecular target: T1, DNA topoisomerase 2-alpha; assay: Inhibition of etoposide-enhanced human topoisomerase 2alpha-mediated DNA cleavage at 100 to 400 uM incubated for 2 mins in presence of 100 uM etoposide by ethidium bromide staining based gel electrophoresis method
[14] = Cytotoxicity against African green monkey Vero cells assessed as reduction in cell viability after 48 hrs by MTT assay; assay type: cell-based; settings: chlorocebus sabaeus, read-out: LC50
[15] = molecular target: T1, DNA topoisomerase 2-alpha; settings: HEK293, 45 uM
Description: Inhibition of topoisomerase 2alpha in HEK293 cells at 45 uM incubated for 48 hrs using TOP-FLASH plasmid substrate by ethidium bromide staining based agarose gel electrophoresis method

T1 sequence (P11388 whole entry): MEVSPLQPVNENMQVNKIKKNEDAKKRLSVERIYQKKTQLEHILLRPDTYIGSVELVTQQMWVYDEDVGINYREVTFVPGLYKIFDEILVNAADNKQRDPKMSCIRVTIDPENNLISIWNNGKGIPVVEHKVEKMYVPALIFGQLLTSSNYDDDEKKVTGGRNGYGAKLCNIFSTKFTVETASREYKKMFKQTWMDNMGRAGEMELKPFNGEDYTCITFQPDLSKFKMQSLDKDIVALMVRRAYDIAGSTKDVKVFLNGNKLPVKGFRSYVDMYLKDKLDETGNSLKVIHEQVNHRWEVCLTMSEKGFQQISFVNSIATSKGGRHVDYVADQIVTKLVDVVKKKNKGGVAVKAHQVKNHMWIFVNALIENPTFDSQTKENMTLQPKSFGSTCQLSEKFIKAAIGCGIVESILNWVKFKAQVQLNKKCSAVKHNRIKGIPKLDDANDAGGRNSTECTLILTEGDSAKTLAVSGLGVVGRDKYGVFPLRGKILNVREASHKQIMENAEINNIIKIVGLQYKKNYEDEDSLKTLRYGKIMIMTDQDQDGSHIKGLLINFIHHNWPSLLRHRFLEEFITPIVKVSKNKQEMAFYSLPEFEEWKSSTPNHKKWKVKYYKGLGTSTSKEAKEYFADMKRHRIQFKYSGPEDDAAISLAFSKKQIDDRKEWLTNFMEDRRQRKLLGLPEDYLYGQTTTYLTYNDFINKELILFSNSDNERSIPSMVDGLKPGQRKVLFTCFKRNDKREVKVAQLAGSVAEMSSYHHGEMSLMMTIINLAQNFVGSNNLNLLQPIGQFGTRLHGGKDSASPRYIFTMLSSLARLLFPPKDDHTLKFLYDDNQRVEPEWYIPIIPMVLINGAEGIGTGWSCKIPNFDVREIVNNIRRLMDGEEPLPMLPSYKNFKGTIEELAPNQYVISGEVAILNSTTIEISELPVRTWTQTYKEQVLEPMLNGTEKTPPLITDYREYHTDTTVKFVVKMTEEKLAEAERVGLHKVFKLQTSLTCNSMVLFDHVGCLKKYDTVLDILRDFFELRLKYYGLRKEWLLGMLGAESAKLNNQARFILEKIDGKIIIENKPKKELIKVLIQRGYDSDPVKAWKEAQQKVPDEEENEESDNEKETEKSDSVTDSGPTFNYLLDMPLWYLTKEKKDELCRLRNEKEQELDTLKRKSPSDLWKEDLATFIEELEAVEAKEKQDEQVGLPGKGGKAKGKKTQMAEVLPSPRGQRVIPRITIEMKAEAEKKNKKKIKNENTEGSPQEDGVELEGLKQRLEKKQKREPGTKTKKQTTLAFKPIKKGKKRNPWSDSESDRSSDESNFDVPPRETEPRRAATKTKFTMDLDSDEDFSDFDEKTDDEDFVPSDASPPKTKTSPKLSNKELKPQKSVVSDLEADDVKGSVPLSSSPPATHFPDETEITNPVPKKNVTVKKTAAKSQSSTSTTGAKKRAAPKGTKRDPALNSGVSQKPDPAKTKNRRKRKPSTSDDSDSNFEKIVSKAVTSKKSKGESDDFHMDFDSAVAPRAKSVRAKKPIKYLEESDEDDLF

Row | SMILES | inhibition [1] | inhibition [2] | Activity (HEK293) | CC50 (HEK293) [µM] | viability at 48 h, 75 µM [3] [%] | inhibition [4] | Activity [5] | also measured
1 | CC(C)(C)Nc1c(-c2ccc(-c3ccc(Cl)cc3)cc2)nc2ccccn12 | inactive | inactive |  |  |  |  |  | 
2 | COc1ccc(-c2ccc(-c3nc4ccccn4c3NC(C)(C)C)cc2)cc1 | inactive | inactive |  |  |  |  |  | 
3 | CC(C)(C)Nc1c(-c2ccc(-c3ccc(F)cc3)cc2)nc2cnccn12 | inactive | inactive |  |  |  |  |  | 
4 | CC(C)(C)Nc1c(-c2ccc(Cl)cc2)nc2ccc(-c3ccc(F)cc3)cn12 | Active | Active | Dose-dependent effect | 8 | > 30 | inactive | inactive | 
5 | CC(C)(C)Nc1c(-c2ccc(Cl)cc2)nc2ccc(-c3ccccc3)cn12 | Active | Active | Dose-dependent effect | 10 | > 30 | inactive | inactive | IC50 [6]: 55.4 µM; Activity [7]: inactive; inhibition [8]: Dose-dependent effect; Activity (Nucleic Acid): inactive; inhibition [9]: Active; inhibition [10]: Active; inhibition [11]: Active; inhibition [12]: Active
6 | Cc1ccc(-c2ccc3nc(-c4ccc(Cl)cc4)c(NC(C)(C)C)n3c2)cc1 | Active | Active | Dose-dependent effect | 15 | > 30 | inactive | inactive | 
7 | COc1ccc(-c2ccc3nc(-c4ccc(Cl)cc4)c(NC(C)(C)C)n3c2)cc1 | Active | Active | Dose-dependent effect | 10 | > 30 | inactive | inactive | 
8 | CC(=O)c1ccc(-c2ccc(-c3nc4cnccn4c3NC(C)(C)C)cc2)cc1 | Active | Active |  |  |  |  |  | 
9 | COc1ccc(-c2nc3ccc(-c4ccccc4)cn3c2NC(C)(C)C)cc1 | Active | Active | Dose-dependent effect | 13 | > 30 | inactive | inactive | 
10 | CC(C)(C)Nc1c(-c2ccc(C(=O)O)cc2)nc2ccccn12 |  |  |  |  |  |  |  | inhibition [13]: inactive
11 | COc1cc([C@@H]2c3cc4c(cc3[C@@H](O[C@@H]3O[C@@H]5CO[C@@H](C)O[C@H]5[C@H](O)[C@H]3O)[C@H]3COC(=O)[C@H]23)OCO4)cc(OC)c1O [ETOPOSIDE] |  |  |  | 55 |  |  | Active | CC50 at 48 h [14]: 75 µM; inhibition [15]: Active
12 | CC(C)(C)Nc1c(-c2ccc(-c3ccccc3)cc2)nc2cnccn12 | Active | Active |  |  |  |  |  | 
